Tested on: 695427-040-R-J1-PDC complex spheroid viability
Assay: Anticancer human tumor 695427-040-R-J1-PDC patient-derived colon adenocarcinoma cell line growth inhibition [RAS]
Settings: for IC50: curve of first compound; for viability, T/C: stronger effect = lower value
Excerpt: RAS pathway inhibitors in Combinations in Complex Spheroids
A high-throughput screen of multi-cell type tumor spheroids was designed to identify active combinations of RAS pathway inhibitors and targeted small molecules. Complex spheroids include a stromal component modeled by human endothelial cells (HUVEC) and fibroblasts modeled by human mesenchymal stem cells (MSCs). The concentration ranges selected for each drug and investigational agent were based upon clinically achievable concentrations if the clinical Cmax of the agent was known.
Compounds. The drugs and investigational agents: abemaciclib (NSC768073), cobimetinib (NSC768068), divarasib (GDC6063, NSC841802), docetaxel (NSC628503), GDC-1971 (RLY-1971, NSC841576), gemcitabine (NSC613327), inavolisib (NSC800729), ipatasertib (NSC767898), KB-0742 (NSC834161), MRTX-1133 (NSC836407), osimertinib (NSC779217), RMC-4630 (NSC839698), RMC-6236 (NSC851965), RMC-6291 (NSC852671), Ro-3306 (NSC812927), sapanisertib (NSC764658), SN-38 (NSC673596), staurosporine (NSC755774), SY5609 (NSC837396), and tovorafenib (DAY101, NSC766906), were obtained from the National Cancer Institute (NCI) Developmental Therapeutics Program Chemical Repository. The FDA-approved anticancer drug set is available from the NCI Developmental Therapeutics Program. […] The stock solutions were prepared in dimethyl sulfoxide (DMSO, Sigma-Aldrich, St. Louis, MO, cat. D2650) at 800-fold the tested concentration and stored at -70 degrees C prior to their use. All drugs and investigational agents were tested over a range starting from a high concentration at or near the clinical Cmax and decreasing in half-log increments. If the clinical Cmax for an agent had not been determined, the highest concentration tested was 10 microM.
Cell Culture. All cells were maintained in an incubator at 37 degrees C and 5% CO2 with 95% humidity. The PDC lines were cultured according to standard operating procedures established by the NCI PDMR. All PDCs were thawed and cultured in Matrigel-coated flasks prepared with a working solution of 1X Ham's F-12 nutrient mix, without supplementation (Invitrogen, Waltham, MA, cat. 11765054), 100 U/mL penicillin-streptomycin (Invitrogen, cat. 15140122), and 2.5% Matrigel (Corning Inc., Corning, NY, cat. 354248) for the first three passages. The 362531-283-R-J2-PDC and 782815-120-R-J1-PDC lines were cultured in 6C/Colon 1B media, which includes advanced DMEM/F-12 (Thermo Fisher Scientific, cat. 12634028), 10 mM HEPES (Thermo Fisher Scientific, cat. 15630080), 1X GlutaMAX supplement (Thermo Fisher Scientific, cat. 35050061), 0.1 mg/mL primocin (InvivoGen, San Diego, CA, cat. ant-pm-2), 10% defined fetal bovine serum, heat inactivated (HyClone Laboratories Inc., Logan, UT, cat. SH30070.03HI), 50% L-WRN conditioned media (ATCC, cat. CRL-3276), 1.25 mM N-Acetyl-L-cysteine (Sigma-Aldrich, cat. A9165), 10 mM nicotinamide (Sigma-Aldrich, cat. N0636), 1X B-27 supplement (Thermo Fisher Scientific, cat. 17504044), 1X N-2 supplement (Thermo Fisher Scientific, cat. 17502048), 50 ng/mL human EGF (Thermo Fisher Scientific, cat. PHG0311), and 10 microM Y-27632 dihydrochloride (Tocris Bioscience, cat. 1254). The K12877-001-R-J1-PDC line was cultured in 6I media, which includes all 6C/Colon 1B media plus 10 ng/mL human FGF-10 (PeproTech, cat. 100-26), 1 ng/mL human FGF-2 (PeproTech, cat. 100-18B), 1 µM prostaglandin E2 (Tocris Bioscience, cat. 2296), […] hydrocortisone (Sigma-Aldrich, cat. H4001), and […] bovine insulin (Sigma-Aldrich, cat. I6634). The K86415-001-R-J1-PDC line was cultured in 6D media, which includes all 6C/Colon 1B media components minus the L-WRN conditioned media. The 485176-168-R4-J1-PDC was cultured in PANC media, which includes all 6C/Colon 1B media plus 100 ng/mL human FGF-10 (PeproTech, cat. 100-26), 500 nM SB-431542 (Selleckchem, cat. S1067), and 10 nM gastrin (Tocris Bioscience, cat. 3006). […]
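Also: viability read after seven days of drug exposure.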
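For viability, T/C in this document: 100% = DMSO vehicle control viability.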

**Q.** `CC1(C)CCC(Nc2ncc(C(F)(F)F)c(-c3c[nH]c4c(P(C)(C)=O)c(C#N)ccc34)n2)CN1` (configuration not stated) + C#Cc1c(F)ccc2cc(O)cc(-c3ncc4c(N5CC6CCC(C5)N6)nc(OCC56CCCN5CC(F)C6)nc4c3F)c12 was tested. Which IC50 (second compound 0.0316 µM) did it give?
**A.** > 300 nM

**Q.** What about the IC50 (second compound 0.1 µM) of the same compound?
**A.** > 300 nM

**Q.** And the IC50 (second compound 0.316 µM)?
**A.** > 300 nM

**Q.** And the IC50 (second compound 1 µM)?
**A.** > 300 nM

**Q.** What about the IC50 (second compound 3.16 µM) of the same compound?
**A.** 3.19 nM

**Q.** And the IC50 (second compound 10 µM)?
**A.** < 0.949 nM

**Q.** And the viability, T/C (second compound 0.0316 µM, first compound 0.000949 µM)?
**A.** 104%

**Q.** What about the viability, T/C (second compound 0.0316 µM, first compound 0.003 µM) of the same compound?
**A.** 91.6%

**Q.** What about the viability, T/C (second compound 0.0316 µM, first compound 0.00949 µM) of the same compound?
**A.** 84.4%

**Q.** What about the viability, T/C (second compound 0.0316 µM, first compound 0.03 µM) of the same compound?
**A.** 79%

**Q.** What about the viability, T/C (second compound 0.0316 µM, first compound 0.0949 µM) of the same compound?
**A.** 84.5%

**Q.** What about the viability, T/C (second compound 0.0316 µM, first compound 0.3 µM) of the same compound?
**A.** 80.3%

**Q.** What about the viability, T/C (second compound 0.1 µM, first compound 0.000949 µM) of the same compound?
**A.** 101%

**Q.** And the viability, T/C (second compound 0.1 µM, first compound 0.003 µM)?
**A.** 87.8%

**Q.** What about the viability, T/C (second compound 0.1 µM, first compound 0.00949 µM) of the same compound?
**A.** 84.3%

**Q.** And the viability, T/C (second compound 0.1 µM, first compound 0.03 µM)?
**A.** 88.6%

**Q.** What about the viability, T/C (second compound 0.1 µM, first compound 0.0949 µM) of the same compound?
**A.** 79%

**Q.** And the viability, T/C (second compound 0.1 µM, first compound 0.3 µM)?
**A.** 73.2%

**Q.** And the viability, T/C (second compound 0.316 µM, first compound 0.000949 µM)?
**A.** 87.2%

**Q.** And the viability, T/C (second compound 0.316 µM, first compound 0.003 µM)?
**A.** 89.7%

**Q.** And the viability, T/C (second compound 0.316 µM, first compound 0.00949 µM)?
**A.** 99.2%

**Q.** What about the viability, T/C (second compound 0.316 µM, first compound 0.03 µM) of the same compound?
**A.** 74%

**Q.** What about the viability, T/C (second compound 0.316 µM, first compound 0.0949 µM) of the same compound?
**A.** 76.8%

**Q.** And the viability, T/C (second compound 0.316 µM, first compound 0.3 µM)?
**A.** 70.4%

**Q.** What about the viability, T/C (second compound 1 µM, first compound 0.000949 µM) of the same compound?
**A.** 67.7%

**Q.** What about the viability, T/C (second compound 1 µM, first compound 0.003 µM) of the same compound?
**A.** 64.5%

**Q.** What about the viability, T/C (second compound 1 µM, first compound 0.00949 µM) of the same compound?
**A.** 59.9%

**Q.** And the viability, T/C (second compound 1 µM, first compound 0.03 µM)?
**A.** 62.5%

**Q.** What about the viability, T/C (second compound 1 µM, first compound 0.0949 µM) of the same compound?
**A.** 67.7%

**Q.** What about the viability, T/C (second compound 1 µM, first compound 0.3 µM) of the same compound?
**A.** 57.8%

**Q.** What about the viability, T/C (second compound 3.16 µM, first compound 0.000949 µM) of the same compound?
**A.** 66.8%

**Q.** And the viability, T/C (second compound 3.16 µM, first compound 0.003 µM)?
**A.** 49.2%

**Q.** And the viability, T/C (second compound 3.16 µM, first compound 0.00949 µM)?
**A.** 51.9%

**Q.** What about the viability, T/C (second compound 3.16 µM, first compound 0.03 µM) of the same compound?
**A.** 48.6%

**Q.** What about the viability, T/C (second compound 3.16 µM, first compound 0.0949 µM) of the same compound?
**A.** 48%

**Q.** And the viability, T/C (second compound 3.16 µM, first compound 0.3 µM)?
**A.** 43.5%

**Q.** What about the viability, T/C (second compound 10 µM, first compound 0.000949 µM) of the same compound?
**A.** 37.4%

**Q.** And the viability, T/C (second compound 10 µM, first compound 0.003 µM)?
**A.** 39.2%

**Q.** What about the viability, T/C (second compound 10 µM, first compound 0.00949 µM) of the same compound?
**A.** 43.2%

**Q.** What about the viability, T/C (second compound 10 µM, first compound 0.03 µM) of the same compound?
**A.** 35.3%

**Q.** And the viability, T/C (second compound 10 µM, first compound 0.0949 µM)?
**A.** 39.3%

**Q.** And the viability, T/C (second compound 10 µM, first compound 0.3 µM)?
**A.** 34.3%

— PubChem BioAssay AID2060888 (Molecular Pharmacology Branch, DTP, NCI, 2025)
